Measured values reported in patent publication US8013006B2.
Like-named read-outs stand apart in the source and are kept apart here.

Test system: HCV replicon
Assay: microbe, parasite or virus in culture
Type: cell-based
Conditions: read-out: Replicon IC5Os
[1] = Replicon IC50 values are determined by firefly luciferase signal, bicistronic replicon, 2 days

## CCn1c(-c2ccc(NC(=O)CCl)cc2)c(C#N)c2ccc(C(F)(F)F)cc21 [Compound 421]
[1]
  IC50: > 2000 nM

## CCn1c(-c2ccc(NC(=O)c3ccccc3)cc2)c(C#N)c2ccc(C(F)(F)F)cc21 [Compound 423]
[1]
  IC50: > 2000 nM

## CCn1c(-c2ccc(NC(=O)N3CCOCC3)cc2)c(C#N)c2ccc(C(F)(F)F)cc21 [Compound 424]
[1]
  IC50: > 2000 nM

## CCn1c(-c2ccc(NC(=O)C3CC3)cc2)c(C#N)c2ccc(C(F)(F)F)cc21 [Compound 425]
[1]
  IC50: 500 to 2000 nM

## CCn1c(-c2ccc3ccccc3c2)c(C#N)c2ccc(OC)cc21 [Compound 426]
[1]
  IC50: 500 to 2000 nM

## CCn1c(-c2ccc3c(ccn3C)c2)c(C#N)c2ccc(OC)cc21 [Compound 427]
[1]
  IC50: 500 to 2000 nM

## CCn1c(-c2cccc(N)c2)c(C#N)c2cc(Cl)ccc21 [Compound 431]
[1]
  IC50: > 2000 nM

## CCNC(=O)c1ccc(-c2c(C#N)c3ccccc3n2CC)cc1 [Compound 432]
[1]
  IC50: > 2000 nM

## CCn1c(-c2ccc(C(=O)NC3CC3)cc2)c(C#N)c2ccccc21 [Compound 433]
[1]
  IC50: > 2000 nM

## CCOC(=O)Nc1cccc(-c2c(C#N)c3cc(Cl)ccc3n2CC)c1 [Compound 434]
[1]
  IC50: > 2000 nM

## CCn1c(-c2ccc(S(N)(=O)=O)cc2)c(C#N)c2cc(F)ccc21 [Compound 437]
[1]
  IC50: > 2000 nM

## CCn1c(-c2ccc(S(=O)(=O)NC)cc2)c(C#N)c2cc(F)ccc21 [Compound 438]
[1]
  IC50: > 2000 nM

## CCn1c(-c2ccc(NS(C)(=O)=O)cc2)c(C#N)c2cc(F)ccc21 [Compound 439]
[1]
  IC50: 500 to 2000 nM

## CCn1c(-c2ccc(NS(=O)(=O)CC)cc2)c(C#N)c2cc(F)ccc21 [Compound 440]
[1]
  IC50: 500 to 2000 nM

## CCOC(=O)Nc1cccc(-c2c(C#N)c3ccc(OCCCn4cncn4)cc3n2CC)c1 [Compound 441]
[1]
  IC50: 500 to 2000 nM

## CCn1c(-c2ccc(NC(=O)NCCCCl)cc2)c(C#N)c2ccc(OC)cc21 [Compound 443]
[1]
  IC50: > 2000 nM

## CCn1c(-c2ccc(NC(=O)NCCc3ccccc3)cc2)c(C#N)c2ccc(OC)cc21 [Compound 444]
[1]
  IC50: > 2000 nM

## CCn1c(-c2ccc(NC(=O)Nc3ccc(C(C)C)cc3)cc2)c(C#N)c2ccc(OC)cc21 [Compound 445]
Hepatitis C virus, 48 h
  IC50: 500 to 2000 nM

## CCn1c(-c2ccc(NC(=O)Nc3ccc(Oc4ccccc4)cc3)cc2)c(C#N)c2ccc(OC)cc21 [Compound 446]
[1]
  IC50: > 2000 nM

## CCOC(=O)Nc1cccc(-c2c(C#N)c3ccc(OCCCCl)cc3n2CC)c1 [Compound 447]
Hepatitis C virus, 48 h
  IC50: < 500 nM

## CCn1c(-c2ccc(NS(=O)(=O)c3cn(C)cn3)cc2)c(C#N)c2ccc(OC)cc21 [Compound 448]
[1]
  IC50: > 2000 nM

## CCn1c(-c2ccc(NS(=O)(=O)c3ccc(N4CCOCC4)nc3)cc2)c(C#N)c2ccc(OC)cc21 [Compound 449]
[1]
  IC50: > 2000 nM

## CCOC(=O)Nc1ccc(-c2c(C#N)c3ccc(C(F)(F)F)cc3n2CC)cc1 [Compound 450]
[1]
  IC50: 500 to 2000 nM

## CCn1c(-c2ccc(NS(=O)(=O)c3cccs3)cc2)c(C#N)c2ccc(OC)cc21 [Compound 451]
[1]
  IC50: > 2000 nM

## CCn1c(-c2ccc(NS(=O)(=O)c3cccc4cccnc34)cc2)c(C#N)c2ccc(OC)cc21 [Compound 452]
[1]
  IC50: > 2000 nM

## CCCOC(=O)Nc1ccc(-c2c(C#N)c3ccc(C(F)(F)F)cc3n2CC)cc1 [Compound 453]
[1]
  IC50: 500 to 2000 nM

## CCn1c(-c2ccc(NC(=O)OCc3ccccc3)cc2)c(C#N)c2ccc(C(F)(F)F)cc21 [Compound 457]
[1]
  IC50: 500 to 2000 nM

## CCn1c(-c2ccc(N)cc2)c(C#N)c2cc(-c3cccc(OC)c3)ccc21 [Compound 459]
[1]
  IC50: 500 to 2000 nM

## CCn1c(-c2cccc(N)c2)c(C#N)c2cc(-c3cccc(OC)c3)ccc21 [Compound 460]
[1]
  IC50: 500 to 2000 nM

## CCOc1ccc2cc(-c3ccc(NS(=O)(=O)CC)cc3)n(CC(C)C)c2c1 [Compound 465]
[1]
  IC50: > 2000 nM

## CCOc1ccc2cc(-c3ccc(NS(C)(=O)=O)cc3)n(C3CCC3)c2c1 [Compound 466]
[1]
  IC50: 500 to 2000 nM

## CCOc1ccc2cc(-c3ccc(NS(=O)(=O)CC)cc3)n(C3CCC3)c2c1 [Compound 467]
[1]
  IC50: 500 to 2000 nM

## CCS(=O)(=O)Nc1ccc(-c2c(C#N)c3ccc(OC)cc3n2C(C)C)cc1 [Compound 468]
[1]
  IC50: < 500 nM

## CCn1c(-c2ccc(N)cc2)c(C#N)c2ccc(OCCCl)cc21 [Compound 476]
[1]
  IC50: 500 to 2000 nM

## CCn1c(-c2ccc(NS(C)(=O)=O)cc2)c(C#N)c2ccc(OCCN3CCCCC3)cc21 [Compound 479]
[1]
  IC50: > 2000 nM

## CCn1c(-c2ccc(NS(C)(=O)=O)cc2)c(C#N)c2ccc(OCCN3CCN(C)CC3)cc21 [Compound 481]
[1]
  IC50: > 2000 nM

## CCn1c(-c2ccc(NS(C)(=O)=O)cc2)c(C#N)c2ccc(OCCN(C)CCOC)cc21 [Compound 482]
[1]
  IC50: 500 to 2000 nM

## CCn1c(-c2cccc(N)c2)c(C#N)c2cc(OC)ccc21 [Compound 483]
[1]
  IC50: > 2000 nM

## CCn1c(-c2nc3ccccc3s2)c(C#N)c2ccc(OC)cc21 [Compound 484]
[1]
  IC50: > 2000 nM

## CCOC(=O)Nc1cccc(-c2c(C#N)c3cc(-c4cccc(OC)c4)ccc3n2CC)c1 [Compound 485]
[1]
  IC50: > 2000 nM

## CCCOC(=O)Nc1cccc(-c2c(C#N)c3cc(-c4cccc(OC)c4)ccc3n2CC)c1 [Compound 486]
[1]
  IC50: 500 to 2000 nM

## CCn1c(-c2ccc(NS(C)(=O)=O)cc2)c(C#N)c2cc(-c3cccc(OC)c3)ccc21 [Compound 487]
[1]
  IC50: 500 to 2000 nM

## CCn1c(-c2ccc(NS(=O)(=O)CC)cc2)c(C#N)c2cc(-c3cccc(OC)c3)ccc21 [Compound 488]
[1]
  IC50: < 500 nM

## CCn1c(-c2cccc(NC(=O)OCC3CCCC3)c2)c(C#N)c2ccc(OC)cc21 [Compound 489]
[1]
  IC50: 500 to 2000 nM

## CCn1c(-c2cccc(NC(=O)OC3CCCC3)c2)c(C#N)c2ccc(OC)cc21 [Compound 490]
[1]
  IC50: 500 to 2000 nM

## CCOC(=O)Nc1cccc(-c2c(C#N)c3ccc(OCCn4cncn4)cc3n2CC)c1 [Compound 491]
[1]
  IC50: > 2000 nM

## CCOC(=O)Nc1cccc(-c2c(C#N)c3ccc(OCCN4CCOCC4)cc3n2CC)c1 [Compound 492]
Hepatitis C virus, 48 h
  IC50: 500 to 2000 nM

## CCOC(=O)Nc1cccc(-c2c(C#N)c3ccc(OCCCN4CCOCC4)cc3n2CC)c1 [Compound 493]
Hepatitis C virus, 48 h
  IC50: < 500 nM

## CCOC(=O)Nc1cccc(-c2[nH]c3cc(OC)ccc3c2C#N)c1 [Compound 494]
[1]
  IC50: > 2000 nM

## CCn1c(-c2ccc(NS(C)(=O)=O)cc2)c(C#N)c2ccc(OCCn3ccnc3)cc21 [Compound 496]
[1]
  IC50: 500 to 2000 nM

## CCn1c(-c2ccc(NS(C)(=O)=O)cc2)c(C#N)c2ccc(OCCn3cncn3)cc21 [Compound 497]
[1]
  IC50: > 2000 nM

## CCn1c(-c2cccc(NC(=O)OCc3ccc(C(C)C)cc3)c2)c(C#N)c2ccc(OC)cc21 [Compound 500]
[1]
  IC50: > 2000 nM

## CCn1c(-c2cccc(NC(=O)OC3CCOC3)c2)c(C#N)c2ccc(OC)cc21 (stereo not shown) [Compound 502]
[1]
  IC50: > 2000 nM

## CCn1c(-c2cccc(NC(=O)O[C@@H]3CCOC3)c2)c(C#N)c2ccc(OC)cc21 [Compound 503]
[1]
  IC50: > 2000 nM

## CCOC(=O)Nc1cccc(-c2c(C#N)c3ccc(OCCCl)cc3n2CC)c1 [Compound 504]
[1]
  IC50: > 2000 nM

## CCn1c(-c2cccc(NS(=O)(=O)CC)c2)c(C#N)c2cc(OC)ccc21 [Compound 505]
[1]
  IC50: > 2000 nM

## CCOC(=O)Nc1cccc(-c2c(C#N)c3cc(OC)ccc3n2CC)c1 [Compound 506]
[1]
  IC50: > 2000 nM

## CCn1c(-c2cccc(NC(=O)OC(C)C)c2)c(C#N)c2cc(OC)ccc21 [Compound 507]
[1]
  IC50: > 2000 nM

## CCCOC(=O)Nc1cccc(-c2c(C#N)c3cc(OC)ccc3n2CC)c1 [Compound 508]
[1]
  IC50: > 2000 nM

## CCn1c(-c2cccc(NC(=O)OCCCCl)c2)c(C#N)c2cc(OC)ccc21 [Compound 509]
[1]
  IC50: > 2000 nM

## CCCNC(=O)Nc1cccc(-c2c(C#N)c3cc(OC)ccc3n2CC)c1 [Compound 511]
[1]
  IC50: > 2000 nM

## CCOC(=O)NC(=O)Nc1cccc(-c2c(C#N)c3cc(OC)ccc3n2CC)c1 [Compound 512]
[1]
  IC50: > 2000 nM

## CCn1c(-c2cccc(NC(=O)Nc3cccc(C(F)(F)F)c3)c2)c(C#N)c2cc(OC)ccc21 [Compound 513]
[1]
  IC50: > 2000 nM

## CCn1c(NC)c(C#N)c2ccc(C(F)(F)F)cc21 [Compound 514]
[1]
  IC50: > 2000 nM

## CCS(=O)(=O)Nc1ccc(-c2cc3ccc(OC(F)F)cc3n2C)cc1 [Compound 515]
[1]
  IC50: 500 to 2000 nM

## CCS(=O)(=O)Nc1ccc(-c2cc3ccc(OC(F)F)cc3n2C(C)C)cc1 [Compound 517]
[1]
  IC50: > 2000 nM

## CCCn1c(-c2ccc(NS(=O)(=O)CC)cc2)c(C#N)c2ccc(OC(F)F)cc21 [Compound 522]
[1]
  IC50: < 500 nM

## CCS(=O)(=O)Nc1ccc(-c2c(C#N)c3ccc(OC(F)F)cc3n2C(C)C)cc1 [Compound 524]
[1]
  IC50: < 500 nM

## CCOC(=O)Nc1cccc(-c2c(C#N)c3ccc(OCCCn4ccnc4)cc3n2CC)c1 [Compound 525]
Hepatitis C virus, 48 h
  IC50: 500 to 2000 nM

## CCOC(=O)Nc1cccc(-c2c(C#N)c3ccc(OCCCN4CCN(C)CC4)cc3n2CC)c1 [Compound 526]
Hepatitis C virus, 48 h
  IC50: < 500 nM

## CCOC(=O)Nc1cccc(-c2c(C#N)c3ccc(OCCCN4CCSCC4)cc3n2CC)c1 [Compound 527]
[1]
  IC50: 500 to 2000 nM

## CCOC(=O)Nc1cccc(-c2c(C#N)c3ccc(OCCCN4CCCCC4)cc3n2CC)c1 [Compound 528]
[1]
  IC50: 500 to 2000 nM

## CCOC(=O)Nc1cccc(-c2c(C#N)c3ccc(OCCCn4ccnn4)cc3n2CC)c1 [Compound 529]
[1]
  IC50: 500 to 2000 nM

## CCOC(=O)Nc1cccc(-c2c(C#N)c3ccc(OCCCN(C)CCOC)cc3n2CC)c1 [Compound 531]
Hepatitis C virus, 48 h
  IC50: 500 to 2000 nM

## CCOC(=O)Nc1ccc(-c2c(C#N)c3ccc(OCCCn4ccnc4)cc3n2CC)cc1 [Compound 532]
Hepatitis C virus, 48 h
  IC50: 500 to 2000 nM

## CCOC(=O)Nc1ccc(-c2c(C#N)c3ccc(OCCCN4CCN(C)CC4)cc3n2CC)cc1 [Compound 533]
Hepatitis C virus, 48 h
  IC50: 500 to 2000 nM

## CCOC(=O)Nc1ccc(-c2c(C#N)c3ccc(OCCCN4CCSCC4)cc3n2CC)cc1 [Compound 534]
Hepatitis C virus, 48 h
  IC50: < 500 nM

## CCOC(=O)Nc1ccc(-c2c(C#N)c3ccc(OCCCN4CCCCC4)cc3n2CC)cc1 [Compound 535]
Hepatitis C virus, 48 h
  IC50: < 500 nM

## CCOC(=O)Nc1ccc(-c2c(C#N)c3ccc(OCCCn4ccnn4)cc3n2CC)cc1 [Compound 536]
Hepatitis C virus, 48 h
  IC50: 500 to 2000 nM

## CCOC(=O)Nc1ccc(-c2c(C#N)c3ccc(OCCCN4CCCC4)cc3n2CC)cc1 [Compound 537]
Hepatitis C virus, 48 h
  IC50: < 500 nM

## CCOC(=O)Nc1ccc(-c2c(C#N)c3ccc(OCCCn4cncn4)cc3n2CC)cc1 [Compound 538]
Hepatitis C virus, 48 h
  IC50: 500 to 2000 nM

## CCOC(=O)Nc1ccc(-c2c(C#N)c3ccc(OCCCN4CCOCC4)cc3n2CC)cc1 [Compound 539]
Hepatitis C virus, 48 h
  IC50: < 500 nM
